Measured values: publication PMC6358866 (International Journal of Molecular Sciences, 2019)

Legend:
[1] = test system: Enterococcus faecalis ATCC 29212 biofilm on CLs; assay: Activity of lipopeptide and CL liquids against biofilms formed on contact lenses; type: cell-based; conditions: EF biofilm on CLs, lipopeptide in PBS, 24 h, resazurin
Description: (§1) Bacterial strains were obtained from the Polish Collection of Microorganisms (Polish Academy of Science, Wroclaw, Poland). Three Gram-positive and two Gram-negative strains linked with CL-related infections were chosen for the study (Staphylococus aureus ATCC 6538, Staphylococcus epidermidis ATCC 14990, Pseudomonas aeruginosa ATCC 9027, Escherichia coli ATCC 25922, and Enterococcus faecalis ATCC 29212). The bacteria were cultured in a Mueller Hinton Broth II (MHB, Biocorp, Warsaw, Poland) overnight, under aerobic conditions at 37 °C. After incubation, the liquid cultures were centrifuged (2500 rpm for 10 min) and washed with phosphoric buffer (PBS, AppliChem, Darmstadt, Germany) three times and resuspended in fresh MHB II for inoculums appropriate for the performed assays.
Bacterial biofilms were cultured on commercially available CLs (1-Day Acuvue Moist, containing Etafilcon A, obtained from Johnson and Johnson Vision Care, Jacksonsville, FL, USA). The CLs were placed in polystyrene 24-well plates (Orange Scientific, Braine-l’Alleud, Belgium) in bacterial suspensions in MHB II at initial inoculums of ca. 5 × 10^8 CFU/mL. After 24 h of incubation (aerobic conditions, 120 rpm shaking, 37 °C), all of the CLs were rinsed three times with PBS. […] After incubation, resazurin was added (final concentration per sample = 0.01%) and absorbance was measured as in the assays 4.3 and 4.4. Positive controls contained CLs with bacterial biofilms placed in pure PBS, while sterile CLs incubated in MHB II replaced with PBS served as negative controls. The experiments were performed in triplicate on three different days.

[2] = test system: Staphylococcus epidermidis ATCC 14990 biofilm; assay: Activity against biofilms formed on polystyrene 96-well plates, 24 h exposure, resazurin; type: cell-based; conditions: polystyrene plate, 24 h exposure in MHB II, resazurin
Description: (§2) Bacterial strains were obtained from the Polish Collection of Microorganisms (Polish Academy of Science, Wroclaw, Poland). […] The bacteria were cultured in a Mueller Hinton Broth II (MHB, Biocorp, Warsaw, Poland) overnight, under aerobic conditions at 37 °C. After incubation, the liquid cultures were centrifuged (2500 rpm for 10 min) and washed with phosphoric buffer (PBS, AppliChem, Darmstadt, Germany) three times and resuspended in fresh MHB II for inoculums appropriate for the performed assays.
(§3) Bacterial suspensions were added to 96-well plates (Kartell, Noviglio, Italy) at initial inoculums of ca. 5 × 10^8 CFU/mL and incubated under aerobic conditions with shaking (120 rpm) at 37 °C for 24 h. […] After exposure, the wells were washed three times with PBS and a solution of resazurin (Sigma Aldrich, St. Louis, MO, USA) in MHB II (0.01%) was added. This cell viability reagent is metabolized by bacterial dehydrogenases upon contact with living cells. As a result, the blue dye is reduced to a pink resorufin. After 1.5 h of incubation, the absorbance was measured at 570 and 600 nm using a microplate reader (Thermo Fisher Scientific, Waltham, MA, USA). […] The metabolic activity of bacteria in the samples was measured according to the following formula:
(§4) Metabolic activity (%) = (ΔAbs of sample − ΔAbs of negative control)/(ΔAbs of positive control − ΔAbs of negative control);
(§5) ΔAbs = absorbance at 570 nm − absorbance at 600 nm;
(§6) The presented results are the means of nine results obtained on three different days.

[3] = test system: Escherichia coli ATCC 25922 biofilm; assay: as above; type: cell-based; conditions: polystyrene plate, 24 h exposure in MHB II
Description: as §2, §3, §4, §5, §6

[4] = test system: Pseudomonas aeruginosa ATCC 9027 biofilm; assay: as above; type: cell-based; conditions: lowest concentration reducing metabolic activity by at least 50 ± 5%; polystyrene plate, 24 h exposure in MHB II, resazurin
Description: as §2, §3, §4, §5, §6

[5] = test system: Enterococcus faecalis ATCC 29212 biofilm; assay: as above; type: cell-based; conditions: polystyrene plate, 24 h exposure in MHB II
Description: as §2, §3, §4, §5, §6

[6] = test system: Staphylococus aureus ATCC 6538 biofilm; assay: Effect of the lipopeptide on lens liquids against biofilms on 96-well polystyrene plates; type: cell-based, Staphylococcus aureus; conditions: SA biofilm on polystyrene, lipopeptide alone in PBS, 24 h
Description: as §1, with “After incubation, the liquid cultures were centrifuged (2500 rpm for 10 min) and washed with phosphoric buffer (PBS, AppliChem, Darmstadt, Germany) three times and resuspended in fresh MHB II for inoculums appropriate for the performed assays.” left out
(§7) Bacterial suspensions were added to 96-well plates (Kartell, Noviglio, Italy) at initial inoculums of ca. 5 × 10^8 CFU/mL and incubated under aerobic conditions with shaking (120 rpm) at 37 °C for 24 h. […] After 1.5 h of incubation, the absorbance was measured at 570 and 600 nm using a microplate reader (Thermo Fisher Scientific, Waltham, MA, USA). […] The metabolic activity of bacteria in the samples was measured according to the following formula:
(§8) Positive controls (100%) were wells with pre-grown biofilms where the MHB II was replaced with pure PBS, while negative controls were wells with pure MHB II (also replaced with PBS). After 24 h of incubation (aerobic conditions, 120 rpm shaking, 37 °C), the solutions were replaced with resazurin in MHB II and the results were read and presented as described in Section 4.3.

[7] = test system: Staphylococcus epidermidis ATCC 14990 biofilm; assay: as above; type: cell-based; conditions: SE biofilm on polystyrene, lipopeptide alone in PBS, 24 h
Description: as §1, with “After incubation, the liquid cultures were centrifuged (2500 rpm for 10 min) and washed with phosphoric buffer (PBS, AppliChem, Darmstadt, Germany) three times and resuspended in fresh MHB II for inoculums appropriate for the performed assays.” left out
as §7, §8

[8] = test system: Enterococcus faecalis ATCC 29212 biofilm; assay: as above; type: cell-based; conditions: EF biofilm on polystyrene, lipopeptide alone in PBS, 'the same concentration' (32 or 16 mg/L), 24 h
Description: as §1, with “After incubation, the liquid cultures were centrifuged (2500 rpm for 10 min) and washed with phosphoric buffer (PBS, AppliChem, Darmstadt, Germany) three times and resuspended in fresh MHB II for inoculums appropriate for the performed assays.” left out
as §7, §8

[9] = test system: Staphylococus aureus ATCC 6538 biofilm; assay: Activity against biofilms formed on polystyrene 96-well plates, 24 h exposure, resazurin; type: cell-based, Staphylococcus aureus
Description: as §2, §3, §4, §5, §6

[10] = lowest concentration reducing metabolic activity by at least 50 ± 5%
[11] = lowest concentration reducing metabolic activity by at least 90 ± 5%, mean of nine results

Substance: (C10)2-KKKK-NH2 [Lipopeptide]
- concentration reducing metabolic activity of bacteria by at least 90% [1]: 8 mg/L
- MBEC 50 [2, 10]: 16 mg/L
- MBEC 90 [2, 11]: 16 mg/L
- MBEC 50 [3, 10]: 64 mg/L
- MBEC 90 [3, 11]: 64 mg/L
- MBEC 50 [4]: 64 mg/L
- MBEC 50 [5, 10]: 16 mg/L
- MBEC 90 [5, 11]: 32 mg/L
- concentration at which highly active against biofilm [6]: 32 mg/L
- concentration at which highly active against biofilm [7]: 16 mg/L
- reduction of metabolic activity in the biofilm [8]: ca. 95%
- reduction in the metabolic activity ([9]; SA biofilm on polystyrene, 24 h exposure, 32 mg/L and higher): over 90%
- MBEC 50 ([9]; lowest concentration reducing metabolic activity by at least 50 ± 5%, polystyrene plate, 24 h exposure in MHB II, resazurin): 8 mg/L
- MBEC 90 ([9]; lowest concentration reducing metabolic activity by at least 90 ± 5%, polystyrene plate, 24 h exposure in MHB II, resazurin, mean of nine results): 32 mg/L
